The source of these data is patent US20040248871A1, “Use of lysyl oxidase inhibitors for cell culture and tissue engineering” (priority 2001, published 2004).

Data set [1] concerns standard purified aortic LO. The experiment in a line: Lysyl oxidase activity assay with tritiated elastin substrate on standard purified aortic LO. Format: biochemical. The note with it: Experiment 2, substrate no. 2, standard purified aortic LO. The method, then:
(§1) The Lysyl oxidase activity was assayed with 300,000 dpm of labelled elastin on the Lysine, substrate of the enzyme (Shackelton and Hulmes Anal. Biochem. (1990) 185: 359-362). The determination of the presence of Lysyl oxidases in the cultures of chondrocytes is carried out according to the standard methods of immunodecoration of the supports onto which the bands separated from the proteins extracted from the corresponding culture media or from the cell lawns have been transferred.

A further data set deals with fibroblasts. Kind of data set: Fibroblasts cultured in monolayer: cell count and MTT viability test. Format: cell-based, human. The text has this:
(§2) The support of the reconstructed skin model is constituted by a dermal substrate (DS) with a base of collagen-glycosaminoglycan cross-linked by chitosan according to the technique published by Duplan-Perrat et al (J Invest Dermatol 2000 114:365). Fibroblasts are inoculated the inside of the DS in order to obtain an equivalent dermis. The reconstituted skin (RS) is obtained by inoculating the keratinocytes after 15 days (day 15) of culture in equivalent dermis. The dermal fibroblasts are obtained from explants of human prepuces after dermal-epidermal separation and cultured in monolayer in DMEM medium (Sigma) supplemented by 10% fœtal calf serum, 4 mM L-glutamine, EGF (Austral Biologic) at 10 ng/ml, penicillin at 100 UI/ml, gentamicin at 100 μg/ml and amphotericin B at 1 μg/ml. The keratinocytes are from a human skin biopsy sample after dermal-epidermal separation by trypsination. The cells are inoculated nutritive layers (irradiated fibroblasts) and cultured in DMEM and HAM F12 at 30% supplemented with fœetal calf serum at 10%, EGF at 10 ng/ml, hydrocortisone at 1.6 ng/ml, umulin at 0.12 UI/ml, choleratoxin at 0.1 nM, triiodothyronine at 0.2 μM, adenine at 24 μg/ml, 4 mM L-Glutamine, penicillin at 100 UI/ml, gentamicin at 100 μg/ml and amphotericin B at 1 μg/ml.
(§3) In fact, the number of these cells is reduced by approximately 50% compared to the control when they are cultured in the presence of 600 μg/ml of βAPN. […] The results of the MTT viability test confirm those of the cell count. […] It must be emphasized that βAPN at 200 μg/ml can optionally cause an increase in cell activity (proliferation and viability) on the fibroblasts inoculated at a low density, and on the fibroblasts and the keratinocytes inoculated at a high density.
Background: Tetrazolium dyes change colour on reduction, which living cells bring about.

The test system of data set [2] is LOX, LOXL1 expression by chondrocytes. The experiment in a line: Immunodecoration with anti LOX, LOXL1 antibodies of extracts of chondrocyte cell lawns and culture medium. Format: cell-based, chicken. Particulars: 6th or 14th day of culture. As to the method: as §1
The day before the samples are taken, the cell lawn is washed three times with medium without serum. The medium is then changed for 24 hours with complete medium without serum.
On the 6th or 14th day of culture the media are sampled and precipitated in a standard fashion with TCA 10% final/4° C./[…]. The centrifugation pellets are rinsed with acetone then solubilized in a 50 μl electrophoresis buffer. The rinsed cell lawns are lysed 2 hours/4° C. (300 μl/P35) in the mixture 8M urea, 0.5% Nonidet, 16 mM disodium phosphate pH 8 and protease inhibitors. […]
After separation by SDS PAGE and transfer by Western Blot, the protein bands are analyzed by immunodecoration using polyclonal anti-LOX and anti-LOXL1 antibodies from rabbits, then a second anti-rabbit antibody marked with alkaline phosphatase before development with the reagent NBT/BCIP (Roche Diagnostic GmBH, Mannheim, Germany).

The next data set has as its system keratinocytes. The experiment in a line: Keratinocytes cultured in monolayer: cell count and MTT viability test. Format: cell-based, human.
Text: as §2, §3

The subject of data set [3] is chondrocytes from the sternum of chicken embryos. The experiment in a line: Dedifferentiation of chicken embryo chondrocytes in two-dimensional culture on plastic (fluorography of 14C-proline labelled collagens, morphology). Format: cell-based. The text has this: a) The experimental chondrocyte culture model is the one with the culture of chicken embryo chondrocytes on plastic in two dimensions. The embryonic state of the cells allows a high level of synthesis of the collagens, unlike the adult chondrocytes. The chicken sternum from which the chondrocytes originates Makes it possible to obtain two pure sub-populations of chondrocytes capable or not capable of subsequently hypertrophying (respectively, the chondrocytes of the cranial or caudal section of the sternum). […] The results which are described always distinguish the sub-population of the chondrocytes studied.
The cultures with 4 mM L-glutamine antibiotics, and 25 μg/ml ascorbate (factor necessary for the stability of the secreted collagen triple helix units) are continued for 2 weeks in the presence or absence of 10% serum, optionally replaced by 100 ng/ml insulin, and by 50 μg/ml βAPN. The absence of serum necessitates the addition of protective agents (1 mM cysteine and 1 mM pyruvate). A day before taking the samples, 10 μCi of 14C Proline is added to the cultures the lawns or media of which are then pepsinated (0.2 mg pepsin/ml/pH 4/24 hours) and subjected to electrophoretic (SDS PAGE gradient of 4.5 at 15% acrylamide) then fluorographic analysis. The fluorographs then reveal the only pepsin-resistant protein bands, essentially the collagens and lipocalines (proteins with lipid transport). The known position of these bands allows the indication of the dedifferentiation of the cells by the appearance of the α2 I chain of collagen I associated with the lowering of the synthesis of the collagens of cartilage type.
βAPN (50 μg/ml) is added immediately upon inoculation, to the culture medium which is renewed every 2 days and applied to the cultures of chondrocytes as well as to those of fibroblasts then of keratinocytes during the formation of the reconstructed skin. […]

Data set [4] relates to hypertrophic chondrocytes of chicken embryos. Kind of data set: Reversibility of effects on bridgings of collagen IX chains in cell lawn of hypertrophic chondrocytes (fluorography). Format: cell-based. Particulars: washings with PBS then medium without βAPN. As to the method:
Chondrocytes of the cranial section of the sternum were inoculated at a high concentration (5 million cells per P35 Petri dish) then subjected to 24 hours of radio-labelling with proline 14C on the 7th, 14th and […] day of culture (respectively day 7, day 14 and day 21).
βAPN was present (+) or absent. (−) for the entire duration of the culture, or present only during the first week ((+)).

The structures appear in SMILES notation. “And” between values parts separate entries of the source, which are not always exact repeats. Equal values may be shown once.

With `N#CCCN` [βAPN, β-aminopropionitrile], the “dpm + βAPN (Lysyl oxidase activity assay)” value in data set [1] is 4340 dpm and 4762 dpm. For the same compound, the “proliferation of the fibroblasts” value with fibroblasts (200 μg/ml) is “slightly increased”. In addition, the “effect on the viability and the multiplication” value is “little effect” with fibroblasts (200 μg/ml, isolated cultures) and “little effect” in the data set with keratinocytes (200 μg/ml, isolated cultures). Besides, the “reduction of the number of cells compared to the control” value with fibroblasts (600 μg/ml) and with keratinocytes (600 μg/ml) was “approximately 50%” each time. Further, the “concentration with inhibiting effect on proliferation” value is given as “greater than 500 μg/ml” with fibroblasts (cell count and MTT); “greater than 500 μg/ml” with keratinocytes (cell count and MTT). The “toxic effect on cells at confluence” value in the data set on fibroblasts (up to 800 μg/ml) and with keratinocytes (up to 800 μg/ml) was “no toxic effect” in each case. The “expression of Lysyl oxidase molecules (LOX, LOXL1)” value in data set [2] was “does not modify the expression of Lysyl oxidase molecules”. Also, the “reduction of proliferation of the keratinocytes” value in the data set on keratinocytes (200 μg/ml) is “approximately 10%”. For the same compound, in data set [3] (50 μg/ml, after 2 weeks of culture), the “effectiveness against dedifferentiation of the chondrocytes” value was “total”. Besides, the “biochemical dedifferentiation of the chondrocytes (collagen I secreted, stopping of the synthesis of collagen X)” value in data set [3] (50 μg/ml, cranial chondrocytes, in the presence of serum, 2 weeks, 2D on plastic) was “totally inhibited”. In data set [3] (after 3 days of culture, in the presence of serum, media and cell lawns), the “expression of collagen X by the hypertrophic (cranial) chondrocytes” value was “allows the normal expression of collagen X”. Moreover, the “reversibility of the modifications in the bridgings between chains of collagen IX after elimination of βAPN” value in data set [4] is on record as at most 6 days.
